Measured values from US12012417B2, “N-substituted tetrahydrothienopyridine derivatives and uses thereof” (NOVARTIS AG, priority 2018, dated 2024).
pEC50: −log10 of the molar value. Where a name gives a salt, the structure may show the parent alone. Read-outs that look alike come from different tables or passages of the source.

What was measured:
[1] = system: Dengue 4 virus MY01-22713; assay: High-content imaging cell-based flavivirus immunodetection (HCl-CFI) assay, Dengue 4; details: Dengue virus, A549, 48 h
[2] = system: Dengue 3 virus MY05-34640-WT-C6/36; assay: High-content imaging cell-based flavivirus immunodetection (HCl-CFI) assay, Dengue 3; details: Dengue virus, A549, 48 h, read-out: Dengue 3 virus MY05-34640-WT-C6/36 in A549 using HCl [Inhibitor/IC50] Qualified AC50
[3] = system: Dengue 1 virus MY97-10245; assay: High-content imaging cell-based flavivirus immunodetection (HCl-CFI) assay, Dengue 1; details: Dengue virus, A549, 48 h, read-out: Dengue 1 virus MY97-10245 in A549 using HCl [Inhibitor/IC50] Qualified AC50
[4] = system: Dengue 2 virus MY97-10340; assay: High-content imaging cell-based flavivirus immunodetection (HCl-CFI) assay, Dengue 2; details: Dengue virus, A549, 48 h
Experimental: High-Content Imaging Cell-Based Flavivirus Immunodetection (HCl-CFI) Assay
A549 cells (7×10^3 cells per well) in a 384-well plate were infected with the DENV-2 (MY97-10340) strain at an MOI of 0.3. The cells were then treated with 3-fold, 10-point serial dilutions of test compound. After 48 h, the cells were fixed with paraformadehyde, and the viral E protein detected with 4G2 antibody labeled with Dylight™ 488 (GenScript). Cell nuclei were stained with Draq5 (Pierce/Thermo), and images were taken on the Opera imaging system (Perkin Elmer). A dose-response curve was plotted to calculate the effective concentration of compound needed to reduce expression of E protein by 50% (EC50) using GraphPad Prism.
The resulted EC50 values are summarized in Table 1 below: ±≥1 μM; 1 μM>++≥0.1 μM; 0.1 μm>+++

[5] = read-out: Dengue 4 virus MY01-22713 in A549 using HCl [Inhibitor/IC50] Qualified AC50, A549 cells, 48 h, viral E protein expression
[6] = read-out: Dengue 2 virus MY97-10340 in A549 using HCl [Inhibitor/IC50] Qualified AC50, A549 cells, MOI 0.3, 48 h, viral E protein expression

Compound	pEC50 [1, 5]	pEC50 [2]	pEC50 [3]	pEC50 [4, 6]	pEC50 ([1]; read-out: Dengue 4 virus MY01-22713 in A549 using HCl [Inhibitor/IC50] Qualified AC50)	pEC50 ([4]; read-out: Dengue 2 virus MY97-10340 in A549 using HCl [Inhibitor/IC50] Qualified AC50)
CC(O)(c1ccc(CC(=O)Nc2sc3c(c2C#N)CN(CC2CCCCC2)CC3)cc1)C(F)(F)F (stereo not drawn) [Example 8, N-(3-cyano-5-(cyclohexylmethyl)-4,5,6,7-tetrahydrothieno[3,2-c]pyridin-2-yl)-2-(4-(1,1,1-trifluoro-2-hydroxypropan-2-yl)phenyl)acetamide]	6.00 to 7.00	6.00 to 7.00	< 6.00	6.00 to 7.00	–	–
CCOc1cc(CC(=O)Nc2sc3c(c2C#N)CN(Cc2cccc(F)c2)CC3)ccc1S(C)(=O)=O [Example 37, N-(3-cyano-5-(3-fluorobenzyl)-4,5,6,7-tetrahydrothieno[3,2-c]pyridin-2-yl)-2-(3-ethoxy-4-(methylsulfonyl)phenyl)acetamide]	> 7.00	> 7.00	6.00 to 7.00	> 7.00	–	–
COc1cc(C#N)cc(CC(=O)Nc2sc3c(c2C#N)CN(Cc2cccc(F)c2)CC3)c1 [Example 38, N-(3-cyano-5-(3-fluorobenzyl)-4,5,6,7-tetrahydrothieno[3,2-c]pyridin-2-yl)-2-(3-cyano-5-methoxyphenyl)acetamide]	6.00 to 7.00	6.00 to 7.00	< 6.00	6.00 to 7.00	–	–
CC1Cc2sc(NC(=O)Cc3ccc(S(C)(=O)=O)cc3)c(C#N)c2CN1Cc1cc(Cl)ccc1Cl (stereo not drawn) [Example 70, N-(3-cyano-5-(2,5-dichlorobenzyl)-6-methyl-4,5,6,7-tetrahydrothieno[3,2-c]pyridin-2-yl)-2-(4-(methylsulfonyl)phenyl)acetamide]	> 7.00	> 7.00	6.00 to 7.00	> 7.00	–	–
Cc1cccc(CN2CCc3c(sc(NC(=O)Cc4ccc(S(N)(=O)=O)cc4)c3C#N)C2)c1C [Example 95, N-(3-cyano-6-(2,3-dimethylbenzyl)-4,5,6,7-tetrahydrothieno[2,3-c]pyridin-2-yl)-2-(4-sulfamoylphenyl) acetamide]	> 7.00	> 7.00	6.00 to 7.00	6.00 to 7.00	–	–
CC1Cc2sc(NC(=O)Cc3ccc(S(N)(=O)=O)cc3)c(C#N)c2CN1Cc1cc(Cl)ccc1Cl (stereo not drawn) [Example 64, N-(3-cyano-5-(2,5-dichlorobenzyl)-6-methyl-4,5,6,7-tetrahydrothieno[3,2-c]pyridin-2-yl)-2-(4-sulfamoylphenyl)acetamide]	> 7.00	> 7.00	> 7.00	> 7.00	–	–
N#Cc1c(NC(=O)Cc2ccc(S(N)(=O)=O)c(F)c2)sc2c1CN(Cc1cccc(F)c1)CC2 [Example 43, N-(3-cyano-5-(3-fluorobenzyl)-4,5,6,7-tetrahydrothieno[3,2-c]pyridin-2-yl)-2-(3-fluoro-4-sulfamoylphenyl)acetamide]	> 7.00	> 7.00	6.00 to 7.00	> 7.00	–	–
Cn1cc(S(N)(=O)=O)cc1CC(=O)Nc1sc2c(c1C#N)CN(CC1CCCCC1)CC2 [Example 88, N-(3-cyano-5-(cyclohexylmethyl)-4,5,6,7-tetrahydrothieno[3,2-c]pyridin-2-yl)-2-(1-methyl-4-sulfamoyl-1H-pyrrol-2-yl)acetamide]	> 7.00	> 7.00	6.00 to 7.00	> 7.00	–	–
COP(C)(=O)c1ccc(CC(=O)Nc2sc3c(c2C#N)CN(Cc2cccc(F)c2)CC3)cc1 (stereo not drawn) [Example 44, Methyl (4-(2-((3-cyano-5-(3-fluorobenzyl)-4,5,6,7-tetrahydrothieno[3,2-c]pyridin-2-yl)amino)-2-oxoethyl)phenyl)(methyl)phosphinate]	–	6.00 to 7.00	< 6.00	–	6.00 to 7.00	6.00 to 7.00
COc1cc(CC(=O)N(C)c2sc3c(c2C#N)CN(CC2CCCCC2)CC3)ccc1S(N)(=O)=O [Example 48, N-(3-cyano-5-(cyclohexylmethyl)-4,5,6,7-tetrahydrothieno[3,2-c]pyridin-2-yl)-2-(3-methoxy-4-sulfamoylphenyl)-N-methylacetamide]	< 6.00	< 6.00	< 6.00	< 6.00	–	–
Cc1ccc(CN2CCc3c(sc(NC(=O)Cc4ccc(S(N)(=O)=O)cc4)c3C#N)C2)cc1 [Example 98, N-(3-cyano-6-(4-methylbenzyl)-4,5,6,7-tetrahydrothieno[2,3-c]pyridin-2-yl)-2-(4-sulfamoylphenyl)acetamide]	6.00 to 7.00	6.00 to 7.00	< 6.00	6.00 to 7.00	–	–
CCOc1cc(CC(=O)Nc2sc3c(c2C#N)CN(Cc2cccc(F)c2)CC3)ccc1S(N)(=O)=O [Example 21, N-(3-cyano-5-(3-fluorobenzyl)-4,5,6,7-tetrahydrothieno[3,2-c]pyridin-2-yl)-2-(3-ethoxy-4-sulfamoylphenyl)acetamide]	> 7.00	> 7.00	> 7.00	> 7.00	–	–
COc1cc(CC(=O)Nc2sc3c(c2C#N)CN(CC2CCCCC2)CC3)ccc1S(N)(=O)=O [Example 7, N-(3-cyano-5-(cyclohexylmethyl)-4,5,6,7-tetrahydrothieno[3,2-c]pyridin-2-yl)-2-(3-methoxy-4-sulfamoylphenyl)acetamide]	> 7.00	> 7.00	> 7.00	> 7.00	–	–
CCOc1cc(CC(=O)Nc2sc3c(c2C#N)CN(CC2CC(F)(F)C2)C(C)(C)C3)ccc1S(N)(=O)=O [Example 78, N-(3-cyano-5-((3,3-difluorocyclobutyl)methyl)-6,6-dimethyl-4,5,6,7-tetrahydrothieno[3,2-c]pyridin-2-yl)-2-(3-ethoxy-4-sulfamoylphenyl)acetamide]	> 7.00	> 7.00	6.00 to 7.00	> 7.00	–	–
Cc1cccc(CN2CCc3c(sc(NC(=O)Cc4ccc(S(N)(=O)=O)cc4)c3C#N)C2)c1 [Example 102, N-(3-cyano-6-(3-methylbenzyl)-4,5,6,7-tetrahydrothieno[2,3-c]pyridin-2-yl)-2-(4-sulfamoylphenyl)acetamide]	6.00 to 7.00	6.00 to 7.00	< 6.00	6.00 to 7.00	–	–
Cc1cc(C)cc(CN2CCc3c(sc(NC(=O)Cc4ccc(S(C)(=O)=O)cc4)c3C#N)C2)c1 [Example 118, N-(3-cyano-6-(3,5-dimethylbenzyl)-4,5,6,7-tetrahydrothieno[2,3-c]pyridin-2-yl)-2-(4-(methylsulfonyl)phenyl)acetamide]	6.00 to 7.00	6.00 to 7.00	< 6.00	6.00 to 7.00	–	–
CS(=O)(=O)Cc1ccc(CC(=O)Nc2sc3c(c2C#N)CN(Cc2cccc(F)c2)CC3)cc1 [Example 32, N-(3-cyano-5-(3-fluorobenzyl)-4,5,6,7-tetrahydrothieno[3,2-c]pyridin-2-yl)-2-(4-((methylsulfonyl)methyl)phenyl)acetamide]	> 7.00	> 7.00	6.00 to 7.00	6.00 to 7.00	–	–
Cc1ccccc1CN1CCc2c(sc(NC(=O)Cc3ccc(S(N)(=O)=O)cc3)c2C#N)C1 [Example 97, N-(3-cyano-6-(2-methylbenzyl)-4,5,6,7-tetrahydrothieno[2,3-c]pyridin-2-yl)-2-(4-sulfamoylphenyl)acetamide]	6.00 to 7.00	6.00 to 7.00	6.00 to 7.00	6.00 to 7.00	–	–
N#Cc1c(NC(=O)Cc2ccc(S(N)(=O)=O)cc2)sc2c1CCCN(CC1CCCCC1)C2 [Example 127, N-(3-cyano-7-(cyclohexylmethyl)-5,6,7,8-tetrahydro-4H-thieno[2,3-c]azepin-2-yl)-2-(4-sulfamoylphenyl)acetamide]	6.00 to 7.00	6.00 to 7.00	< 6.00	6.00 to 7.00	–	–
CN(C(=O)Cc1ccc(S(N)(=O)=O)cc1)c1sc2c(c1C#N)CN(CC1CCCCC1)C(C)(C)C2 [Example 75, N-(3-cyano-5-(cyclohexylmethyl)-6,6-dimethyl-4,5,6,7-tetrahydrothieno[3,2-c]pyridin-2-yl)-N-methyl-2-(4-sulfamoylphenyl)acetamide]	< 6.00	< 6.00	< 6.00	< 6.00	–	–
Cc1cc(C)cc(CN2CCc3c(sc(NC(=O)Cc4ccc(S(N)(=O)=O)cc4)c3C#N)C2)c1 [Example 110, N-(3-cyano-6-(3,5-dimethylbenzyl)-4,5,6,7-tetrahydrothieno[2,3-c]pyridin-2-yl)-2-(4-sulfamoylphenyl)acetamide]	> 7.00	> 7.00	6.00 to 7.00	> 7.00	–	–
COC(=O)c1ccccc1CN1CCc2c(sc(NC(=O)Cc3ccc(S(N)(=O)=O)cc3)c2C#N)C1 [Example 91, Methyl-2-((3-cyano-2-(2-(4-sulfamoylphenyl)acetamido)-4,5-dihydrothieno[2,3-c]pyridin-6-(71-1)-yl)methyl)benzoate hydrochloride]	6.00 to 7.00	< 6.00	–	< 6.00	–	–
